Test results as given in patent publication US20140220694A1, “METHODS AND COMPOSITIONS RELATING TO PLATELET SENSITIVITY” (ELECTROPHORETICS LIMITED, priority 2011, published 2014).

What was measured:
Assay type in all cases: in vivo, human
[1] = system: ITGB3 (Glycoprotein IIIa); assay: Western blotting of platelet lysates with N- and C-terminal specific antibodies; details: irrespective of platelet responsiveness status
Method: Platelet lysates from subjects (10 μg each) were mixed with equal volumes of Laemmli sample buffer (2×) (125 mM Tris-base, 4% SDS, 20% glycerol, 4% β-mercaptoethanol, 0.04% bromophenol blue), and subsequently loaded onto a 12.5% SDS-PAGE gel. Proteins were transferred onto PVDF membranes, and detected using specific antibodies as follows. Paired blots were incubated with Anti-GP111a C-terminal specific (Santa Cruz Biotechnology, Item code sc-6626, C-20) or anti GP111a N-terminal specific (Santa Cruz Biotechnology, Item code sc-6627, N-20) respectively. Bands were scanned and densitometric analysis performed using Image J system (a Java based image processing program developed by the National Institutes of Health, Bethesda, USA).

[2] = system: platelet protein biomarkers of aspirin resistance; assay: Aspirin resistance biomarker SRM method (six biomarkers); details: two aspirin resistant and 10 aspirin sensitive platelet digests
Description: The six markers are Integrin beta 3 (total) and Integrin beta 3 isoform A, heat shock protein A5, pyruvate kinase isozyme M1/M2, RAB GDP1 alpha & prostaglandin G/H synthase. For each marker two or three proteotypic tryptic peptides were selected and heavy isotope standard synthetic peptides were purchased from a commercial supplier (Thermo Scientific, Belgium). Platelet preparations from Example 3 were also used in the SRM method for simultaneous measurement of six biomarkers of aspirin resistance. Prior to analysis using Platelet Aspirin Resistance assay version 2.0 samples were resuspended in a solution containing 5 fmol/μL of each of the heavy AQUA peptides (See table 2) in the method and 200 μg/mL glucagon. Prior to SRM samples were resolved by RP-chromatography over a 9 minute ACN gradient (5-30%) in 0.2% formic acid at 100 μl/min. The Platelet Aspirin Resistance assay version 2.0 contains 96 SRM transitions, covering 17 peptides from 5 proteins. The SRM cycle time was 2 seconds with retention time windows used to maximise the scan time given to each SRM transition. Including washes and time to equalibrate the column, the total run time of the method was 30 minutes.

[3] = system: integrin beta 3 (ITGB3); assay: SRM analysis of TMT-labelled platelet peptides, post:pre aspirin ratios
Method: Peptides identified in the discovery study from candidate proteins were taken forward if they were proteotypic and had characteristics suitable for robust SRM quantitation i.e. fully hydrolysed, contained no known modifications (either in vivo or experimental) and had suitable MS/MS fragments for Q3 selection. Up to six peptides per protein were selected for targeted quantitation (Table 2). The m/z of Q1 and Q3 transitions for selected peptides were calculated either from data-dependent sequencing in the discovery study or from in silico analysis using Pinpoint (ThermoFisher). The theoretical optimal collision energies for each transitions were also calculated using the discovery data and Pinpoint (ThermoFisher). Peptide dection and quantitation was based on time-alignment of multiple transitions per peptide (up to six transitions per peptide). Only peptides with consistant detection of multiple time-aligned transitions in all subject samples were used in the final quantitation. The final SRM method was then applied to the quantitative analysis of the experimental sample set. TMT-labeled subject samples (70/90 μg, check) were reduced, alkylated, digested in-solution and purified by RP and SCX chromatography. […] The SRM peak area for each pre-aspirin sample was measured relative to the SRM peak area for each post-aspirin sample. […]

[4] = system: platelets; assay: TMTsixplex GeLC-MS/MS discovery proteomics of platelet extracts pre and post aspirin treatment; details: for peptide/protein expression after aspirin treatment: 300 mg daily, 1 month oral
Method: To address the shortage of sensitive, robust and reliable markers of aspirin resistance the inventors undertook a comparative proteomic study of platelet extracts derived from samples known to be resistant and sensitive following 1 month's oral administration of therapeutic doses of aspirin (300 mg daily).
Briefly, platelets were purified from blood drawn from individuals with functionally documented aspirin resistance (n=2) or sensitivity (n=4). In each case matched samples were drawn pre- and post-aspirin treatment. Proteins were extracted, reduced and alkylated prior to labelling with a sixplex set of isobaric mass tags (TMTsixplex, Proteome Sciences plc; Refer to FIG. 1b). After labelling sets of six samples were pooled according to a randomised schedule and subjected to 1-dimensional SDS-PAGE. Each gel lane was cut into […] and each band subjected to in gel digestion using trypsin prior to analysis by LC-MS/MS to allow protein identification. Relative quantitation of each protein was achieved by comparing the ion intensity and area under the curve for each of the six TMT Reporter Ions and proteins showing a difference in levels between aspirin resistant and sensitive platelets were thus identified.
From 94 healthy subjects, 2 subjects were determined as aspirin resistance using measurements of platelet aggregommetry (agonist's arachidonic acid and ADP) and 11-dehydroTXB2 in urine. To be defined as truly aspirin resistant subjects must have an abnormal response with both measures. Subjects took 300 mg aspirin daily for 1 month.
Preparation of Platelet Samples 60 ml whole blood was obtained from subjects from the antecubital vein using a Butterfly®19-gauge needle, and collected into NaCl trisodium citrate (final concentration 0.38%). […]
Prior to analysis by GeLC-MS/MS 30 μg of each sample within a TMTsixplex experiment were mixed 1:1:1:1:1:1. The combined sample was analysed by GeLC-MS/MS with the entire gel lane being excised into 15 sections. […]

[5] = system: Integrin beta 3; assay: Integrin beta 3 isotyping SRM assay, post:pre aspirin ratio
Method: 50 ml of whole blood was drawn from subjects into trisodium citrate (final concentration 0.32%) from the antecubital vein using a Butterfly® 19-guage siliconised needle. Blood was centrifuged (20 min, 200×g, room temperature (RT)) to obtain platelet rich plasma (PRP) that was acidified with the addition of 0.3M citric acid (target pH 6.5). Further centrifugation (15 min, 1200×g, RT) produced the platelet pellet that was immediately re-suspended in citrate wash buffer (refer to Appendix 1 for composition) and prostaglandin E1 (Sigma) was added to a final concentration of 10 nM. Removal of residual red cells and monocytes was performed by further centrifugation (3 min, 200×g, RT) and decanting of the platelet rich supernatant. Final centrifugation (15 min, 1200×g, RT) produced the washed platelet pellet that was stored at −80° C. The washed platelet pellet was re-suspended in lysis buffer (NaCl 150 mM, Tris-base 32 mM, NaF 50 mM, Na orthovanadate 1 mM to which 1 ml ethylenediaminetetraacetic acid (EDTA; 0.1M stock solution) and 1 ml Triton-X 100 was added prior to adjusting to pH 7.6 with conc. HCL and volume made up to 100 ml) containing protease inhibitor cocktail (Sigma Aldrich, UK) and placed on ice for 30 min, before agitation on ice for a further 5 min. The sample was centrifuged (5 min, 9000×g, 4° C.) to remove cellular debris. The supernatant was stored at −80° C. Aspirin sensitivity was assessed in individuals prescribed aspirin for secondary prevention using a combination of functional and biochemical assays. […] The amount of endogenous (light) peptide is calculated based on the peak area ratio relative to the 100 fmol spiked heavy peptide. For individuals where samples were available pre and post treatment with Aspirin, a post to pre ratio was calculated to assess any changes in peptide levels. […] For the healthy normal cohort, pre and post aspirin samples were not available and the basal pg measured peptides level per μg total protein were reported.

## CC(=O)Oc1ccccc1C(=O)O [aspirin, acetylsalicyclic acid]
[1]
  intensity of staining of integrin beta 3 band, N-terminus antibody: consistent pre- and post-aspirin treatment
[2]
  aspirin-dependant expression of integrin beta 3 isoform A, heat shock protein A5, RAB GDP1 alpha, prostaglandin G/H synthase: consistent changes
  aspirin-dependant expression of pyruvate kinase isozyme M1/M2: more variable
[3]; aspirin resistant compared to aspirin sensitive subjects
  ITGB3 peptide specific for isoform beta 3A, post:pre aspirin: consistently showed significant changes
[3]; six subjects pre and post aspirin
  ITGB3 peptides common to all three isoforms, protein levels after treatment: no difference in protein levels
[4]; housekeeping proteins used for normalisation
  levels of vinculin, myosin and talin: not influenced by aspirin treatment
[4]; platelets from aspirin-resistant subjects
  peptide/protein expression after aspirin treatment: mostly down-regulation of peptide/protein expression
[4]; platelets from aspirin-sensitive individuals
  peptide/protein expression after aspirin treatment: remained broadly similar or increased
[5]; majority of 10 aspirin sensitive patients
  integrin beta 3 isoform A level after aspirin: remained level or decreased
[5]; majority of aspirin sensitive patients
  total integrin beta 3 levels after aspirin: remained relatively unchanged
[5]; two aspirin resistant patients, 1 month treatment
  integrin beta 3 isoform A level after aspirin: expected increase
